Bounds are passed on as bounds.

Three molecules from patent publication US9435738B2, “System and device for characterizing cells” (The Johns Hopkins University, priority 2011, dated 2016) can be followed below.

The subject of the assay is Mouse myoblasts (c2c12). As to the kind of experiment: microscopy-based assay measuring cell cycle phase and cell/nuclear properties simultaneously in the same cells. The note with it: for cell cycle phase enriched / blocked by treatment: cell-cycle distribution vs control cells; for contribution to changes in nuclear size due to (uncontrolled) intrinsic changes in nuclear size in each phase / contribution to changes in nuclear size due to forced cell-cycle redistribution: population-averaged nuclear size, Eq. 2, FIG. 36 B; for time after release at which asynchronized (untreated) cell cycle distribution is recovered: release from synchronizing drug. On the procedure:
For each type of cell, ˜10,000 cells were plated on a glass bottom dish (World Precision Instruments, Sarasota, Fla.). After incubation for 48 h, the treatment for synchronization was applied. To serum-starve cells, cells were washed three times with Hanks' balanced salt solution (HBSS) (GBICO) and cultured in serum-free medium for 72 h. For synchronization at early S phase, cells were treated with 2 mM of thymidine for 18 h twice. Between these two treatments, cells were rinsed with HBSS three times and cultured in normal growth medium to release cell cycle for 9 h. To synchronize cells in the M phase, cells were first treated with 2 mM of thymidine for 24 h. Followed by rinsing with HBSS three times, cells were released with normal growth medium for 3 h. After the short release, cells were treated with 100 ng/ml of microtubule-depolymerizing drug nocodazole for 12 h.
Cells were fixed with 3.7% of formaldehyde (Sigma) for 15 min at room temperature (RT). After fixation, cells were permeabilized with 0.1% Triton X-100 (Sigma) for 10 min and blocked for nonspecific binding with phosphate-buffered saline (PBS) supplemented with 10% of goat serum for 30 min. Cells were incubated with specific concentration of dye diluted from stock solution for 1 h. Nuclear DNA was stained with Hoechst 33342 (Sigma) at 1:40 dilution, Cytoplasm was stained with HCS CellMask Cy5 (Invitrogen) at 1:20000 dilution. Actin was stained with Phalloidin 488 (Invitrogen) at 1:40 dilution. PBS rinse was conducted three times between each step.
Fluorescent images were collected with a Nikon DS-QiMc camera installed on a customized Nikon TE300 microscope with a 10× Plan Fluor lens (N.A. 0.3, Nikon Melville, N.Y.), a motorized stage, and motorized excitation and emission filters (Prior Scientific, Rockland, Mass.) controlled by Nikon NIS Elements. Eighty-one (9-by-9 grid) fields of views were consistently generated using the software Nikon NIS-Elements. The size of the image acquired from the camera was 1280×1024 pixels, and the pixel size was 0.57 μm for a 10× objective. Our ΔX and ΔY for image capture was 662 μm and 520 μm respectively to allow 10% overlay between adjacent fields. The total size of the scanning region (81 images) was ˜28.5 mm^2. Four different channels (UV, GFP, Cy5, and phase contrast) were collected for every field of view. The calibration glass-bottom dish contained dyes for three different fluorescent channels, UV, GFP, and Cy5. For each fluorescence channel, UV, GFP, and Cy5, two calibration images were acquired: with and without illumination. The calibration images were used to reduce the non-uniform illumination of fluorescent images. All of the phenotypic information was calculated with a custom high throughput program (written in Matlab) developed in our laboratory. Typically >1,000 cells were analyzed per different biological repeat (i.e. different cells) for a total >3,000 cells for each tested condition.
To precisely segment individual cells and nuclei, we used slightly different approaches based on the same principle. For nuclear segmentation, because of the relatively circular shape and relatively even intensity of the Hoechst stain, we filtered calibrated images (as described in the previous section) with a 23×23 pixel normalized Gaussian filter (similar scale as the size of nuclei) and an averaging filter (same size) to obtain IG (Gaussian intensity) and IM (averaged intensity). Subtracting IM from IG gives IN, the nuclear intensity values without regional background.
Because cells are larger than their nuclei, a larger size of filters was needed. However, one major limitation with spatial domain image filters is non-continuous edges. Increasing the size of the filter increases the size of this “non-trustable” region. The use of a spatial filter 2r+1 in size will lead to the loss of r+1 pixels from the edge because of incomplete information, which greatly reduces the usable image size. […]

In the case of `Cc1cn([C@H]2C[C@H](O)[C@@H](CO)O2)c(=O)[nH]c1=O` [thymidine], the “increase in mean cell size in the G2/M phase compared to untreated (asynchronized) cells in the same phase” value came out at 220%, the “cell cycle phase enriched / blocked by treatment” value is recorded as “S phase”, the “contribution to changes in nuclear size due to (uncontrolled) intrinsic changes in nuclear size in each phase” value was 91% and the “contribution to changes in nuclear size due to forced cell-cycle redistribution” value is given as 9%. Besides, the “time after release at which asynchronized (untreated) cell cycle distribution is recovered” value is 24 h. In addition, the “increase in mean size of cells in the G0/G1 phase compared to untreated (asynchronized) cells in the same phase” value (G0/G1 phase) was 130%. Besides, the “mean size of treated cells in the S phase relative to mean size of untreated cells in the S phase” value (S phase) was found to be 2.2 times. Besides, the “increase in mean size of cells in the S phase compared to untreated cells in the same phase” value (S phase, after forced synchronization) was determined as 120%.

Regarding `CCNc1cc(N[C@H]2CC[C@H](O)CC2)nc(Nc2ccc3c(ccn3Cc3ccccc3)c2)n1` [Cdk4/6 inhibitor IV, trans-4-((6-(ethylamino)-2-((1-(phenylmethyl)-1H-indol-5-yl)amino)-4-pyrimidinyl)amino)-cyclohexanol], the “cell cycle phase enriched / blocked by treatment” value is recorded as “blocked cells in the G0/G1 phase”. For the same molecule, the “decrease in nuclear size of cells in the G0/G1 phase” value (10 nM for 24 h, G0/G1 phase, P<0.0001) is given as more than 50%. In addition, the “decrease in population-averaged cell size / nuclear size” value (10 nM for 24 h, population-averaged, accompanied by rounding of the nucleus) is given as approximately 50%. Besides, the “time after release during which cell properties continued to be affected” value (after removing inhibitor) is on record as “up to 6 h”.

As to `COC(=O)Nc1nc2ccc(C(=O)c3cccs3)cc2[nH]1` [nocodazole], the “increase in mean cell size in the G2/M phase compared to untreated (asynchronized) cells in the same phase” value turned out to be 75%, the “cell cycle phase enriched / blocked by treatment” value is reported as “M phase”, the “contribution to changes in nuclear size due to (uncontrolled) intrinsic changes in nuclear size in each phase” value is on record as 41% and the “contribution to changes in nuclear size due to forced cell-cycle redistribution” value came to 35%. Also, the “time after release at which asynchronized (untreated) cell cycle distribution is recovered” value came out at 24 h. Also, the “change in measured cell properties caused by synchronization” value (compared phase-to-phase to control cells) is recorded as more than 30%.
